Reference: patent publication US8962691B2, “Retinoid replacements and opsin agonists and methods for the use thereof” (University of Washington, priority 2003, dated 2015)

Key:
[1] = target: T1, opsin (Bos taurus, UniProt P02699); test: Photoisomerization (bleaching) of 11-cis-7-ring-retinals in solution and bound to opsin
T1 construct: Preparation of rod outer segment, opsin, rhodopsin regeneration with retinals; from tissue; host or cells: rod outer segments
Protocol: Preparation of rod outer segment, opsin, rhodopsin regeneration with retinals, and purification of rhodopsin on a concanavalin A-Sepharose 4B column were conducted as described previously (Jang et al., J. Biol. Chem. 276:26148-53 (2001)).

[2] = target: T2, rhodopsin (Bos taurus, UniProt P02699); test: FTIR spectroscopy of regenerated rhodopsin; assay type: biochemical; settings: for FTIR difference spectra of regenerated rhodopsin upon photoactivation: 7-ring analogs
T2 construct: Opsin membranes (24 μM) (Sachs et al., J. Biol. Chem. 275:6189-94 (2000)); from tissue; rod outer segment membranes by inference
T2 sequence (P02699 whole entry): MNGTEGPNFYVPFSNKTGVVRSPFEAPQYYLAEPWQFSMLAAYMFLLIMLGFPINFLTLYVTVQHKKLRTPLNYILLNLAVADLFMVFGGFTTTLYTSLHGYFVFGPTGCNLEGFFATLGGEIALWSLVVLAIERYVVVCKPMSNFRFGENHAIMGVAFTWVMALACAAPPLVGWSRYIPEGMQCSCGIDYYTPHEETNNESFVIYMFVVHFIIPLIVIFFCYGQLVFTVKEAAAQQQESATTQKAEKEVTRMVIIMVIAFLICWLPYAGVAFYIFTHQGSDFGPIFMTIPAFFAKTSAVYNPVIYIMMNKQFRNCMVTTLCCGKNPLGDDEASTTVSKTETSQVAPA
Protocol: Opsin membranes (24 μM) (Sachs et al., J. Biol. Chem. 275:6189-94 (2000)) were incubated overnight with 240 μM 11-cis-retinal or with the mixture of either 11-cis-6-ring- or 11-cis-7-ring-retinal isomers in the BTP buffer (20 mM BTP, pH 7.5, containing 1 mM MgCl2 and 130 mM NaCl). Suspensions of membranes were centrifuged for 25 minutes at 100,000×g and resuspended in the BTP buffer to yield 2.2 mM rhodopsin (from absorption at 500 nm). […] For H2O/D2O exchange, the pellet was resuspended three times in deuterated buffer. The buffer solution was removed, and the pellet transferred to a 30-mm-diameter temperature-controlled transmission cell with two BaF2 windows and a 3 μm polytetrafluoroethylen gasket. The spectra were recorded using a Bruker ifs 66-V spectrometer (Bard et al., FEBS Lett. 473:259-64 (2000)). For all samples, Meta II minus rhodopsin difference spectra were produced.

[3] = system: Rpe65−/− mice
Protocol: Mice were anesthetized by intraperitoneal injection with 15 μl/g body weight of 6 mg/ml ketamine and 0.44 mg/ml xylazine diluted with 10 mM phosphate buffer, pH 7.2, containing 100 mM NaCl. The pupils were dilated with 1% tropicamide. A contact lens electrode was placed on the eye with a drop of methylcellulose, and a ground electrode (a reference electrode) was placed in the ear. ERGs were recorded with the universal testing and electrophysiologic system 3000 (UTAS E-3000) (LKC Technologies, Inc.). The mice were placed in a Ganzfield chamber, and responses to flash stimuli were obtained from both eyes simultaneously. […] Two to four recordings were made with >10-second intervals. Typically, 4-8 animals were used for recording of each point in all conditions. All ERG measurements were done within 10-40 minutes after anesthesia.

[4] = system: Rpe65−/− mice; test: In vivo regeneration of rhodopsin with 6- and 7-ring isomers; design: species or system mouse
Source text: All animal studies employed procedures approved by the University of Washington Animal Care Committee and conformed to recommendations of the American Veterinary Medical Association Panel on Euthanasia. All animals were maintained in complete darkness, and all manipulations were done under dim red light employing a Kodak No. 1 Safelight filter (transmittance >560 nm). Typically, 2-3-month-old mice were used in all studies. RPE65-deficient mice were obtained from M. Redmond (National Eye Institute, National Institutes of Health. Bethesda, Md.) and genotyped as described previously (Redmond et al., Nat. Genet. 20:344-51 (1998; Redmond et al. Methods Enzymol. 316:705-24 (2000)).
All procedures were performed under dim red light as described previously (Van Hooser et al., Proc. Natl. Acad. Sci. USA 97:862328 (2000); Jang. et al., J. Biol. Chem. 276:3245665 (2001); Palczewski et al., Biochemistry 38:12012-19 (1999)).

[5] = system: Gt; test: Kinetic light scattering (Gt activation); assay type: biochemical
Protocol: Light-scattering changes were measured as previously described (Heck et al., Methods Enzymol. 315:32947 (2000)). Measurements were performed in 10-mm path cuvettes with 300-μl volumes in isotonic buffer (20 mM BTP, 130 mM NaCl, and 1 mM MgCl2, pH 6.4, as indicated in the legend to FIG. 6) at 22° C. with a 5-ms dwell time of the A/D converter (Nicolet 400, Madison, Wis.). Samples contained membrane suspension (3 μM rhodopsin) reconstituted with purified Gt (0.8 μM) and 1 mM GTP. Reactions were triggered by flash photolysis of rhodopsin with a green (500±20 nm) flash attenuated by appropriate neutral density filters. The flash intensity was quantified photometrically by the amount of rhodopsin bleached and expressed in terms of the mole fraction of photoexcited rhodopsin (Rh*/Rh).

[6] = system: rhodopsin kinase; test: Phosphorylation of regenerated rhodopsin by rhodopsin kinase; assay type: biochemical; settings: in vitro
Protocol: Regenerated rhodopsin (2 mg/ml) was mixed in 100 μl of 100 mM sodium phosphate buffer, pH 7.2, containing 5 mM MgCl2, 0.5 mM [^32P]ATP (approximately 35,000 to approximately 50,000 cpm/nmol) and purified rhodopsin kinase (approximately 5 μg of protein), and the assay was carried out as described previously (Palczewski et al., J. Biol. Chem. 266:1294955 (1991)). Studies were performed in triplicate.

T1 sequence (P02699 whole entry): as above

With “9,11,13-tri-cis-7-ring retinal [isomer 1]” the “abundance in isomer mixture after bleaching” value ([1]; bleaching 7-ring-retinoids in solution) was “least abundant isomer” and the “FTIR difference spectra of regenerated rhodopsin upon photoactivation” value (shortened to “FTIR difference spectra”) [2] was “only minor changes in the difference spectra”.

With 9,11-di-cis-7-ring retinal [isomer 4] the “FTIR difference spectra” value [2] was “only minor changes in the difference spectra”.

In the case of 11,13-di-cis-7-ring retinal [isomer 2], the “isomerization when bound to opsin” value [1] is reported as “converts readily to isomer 3 even in the dark” and the “FTIR difference spectra” value [2] is reported as “inactive”.

For 11-cis-6-ring-retinal, the “activity of rhodopsin regenerated in vivo” value ([3]; Rpe65−/− mice) was “active at higher bleaches”, the “ERG activity (a- and b-wave) compared with Me2SO” value ([3]; mouse, in vivo) was “clearly elevated” and the “isomeric products in visual pigment after injection of isomer mixture” value [4] was “three isomers”. For the same substance, the “sensitivity of activity to hydroxylamine” value [5] was “sensitive to hydroxylamine”, the “intensity of activating light flash needed for Gt activation rates comparable to wild-type rhodopsin” value ([5]; membranes with regenerated rhodopsin) was 1350 fold and the “pH dependence of Gt activation” value ([5]; pH 6.4 vs 7.4) was “enhanced at acidic pH”.

In the case of “11-cis-6-ring-rhodopsin: rhodopsin regenerated with 11-cis-6-ring-retinal (2-carbon bridge)”, the “activity relative to the 7-locked pigment” value [5] is reported as “markedly higher”, the “pKa of the light-induced active species” value [2] is reported as 5.4 and the “FTIR: photoproduct after bleaching” value ([2]; pH 4.5) is reported as “Meta II-like product that is able to bind Gt-(340-350) derived peptide”. For the same substance, the “FTIR: activity after bleaching” value ([2]; pH 7.5) was “only residual activity”.

With 11-cis-7-ring retinal [isomer 3] the “isomerization when bound to opsin” value [1] was “most stable to isomerization”, the “regeneration of opsin in vivo” value [4] was “readily and preferentially regenerated” and the “activity relative to wild-type” value ([5]; regenerated rhodopsin) was 0.10%. The “FTIR difference spectra” value [2] was “inactive”.

“11-cis-7-ring-rhodopsin: rhodopsin regenerated with 11-cis-7-ring-retinal” was tested, and the “activity in phosphorylation assay with purified rhodopsin kinase” value [6] was “inactive”.

For “Meta II: catalytically active rhodopsin intermediate containing all-trans-retinal bound to Lys296 of opsin [reference compound]”, the “pKa of the light-induced active species” value [2] was 6.7.
